Test results as given in publication PMC5839718 (The Journal of General Physiology, 2018).
“Also recorded” adds a separate entry of the source.

Tests used:
[1] = tested on: (α4)2(β2)3 nAChR from α4 and β2 (1:4); settings: 10 µM ACh, ref Timmermann et al. (2012); cited from earlier work
[2] = biological target: Ls-AChBP; settings: read-out: NS9283 Ki at Ls-AChBP; ref Olsen et al., 2014; cited from earlier work
[3] = biological target: α4β2 nAChR from β-0a-α and α4^VFL (1:1) (Homo sapiens, UniProt P17787+P43681, H142V/Q150F/T152L); experiment: two-electrode voltage-clamp, oocytes, β-0a-α and α4^VFL; assay type: cell-based; settings: β-0a-α + α4^VFL
Chain of α4β2 nAChR from β-0a-α and α4^VFL (1:1) (P17787 26-502): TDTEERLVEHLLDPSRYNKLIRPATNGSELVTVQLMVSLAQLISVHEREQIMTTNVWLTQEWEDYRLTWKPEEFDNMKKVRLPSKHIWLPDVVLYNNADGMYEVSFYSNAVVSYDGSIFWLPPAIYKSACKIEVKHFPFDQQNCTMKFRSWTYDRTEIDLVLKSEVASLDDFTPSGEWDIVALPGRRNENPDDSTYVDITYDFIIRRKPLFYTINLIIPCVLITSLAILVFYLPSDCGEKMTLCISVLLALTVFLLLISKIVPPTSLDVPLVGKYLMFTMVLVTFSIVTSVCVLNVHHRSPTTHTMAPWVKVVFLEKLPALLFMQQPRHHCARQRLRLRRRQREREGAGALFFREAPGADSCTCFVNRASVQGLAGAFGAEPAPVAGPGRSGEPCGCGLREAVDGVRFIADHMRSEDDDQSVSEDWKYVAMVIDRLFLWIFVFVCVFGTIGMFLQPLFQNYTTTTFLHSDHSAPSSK
Chain of α4β2 nAChR from β-0a-α and α4^VFL (1:1) (P43681 27-627, stated change not applied): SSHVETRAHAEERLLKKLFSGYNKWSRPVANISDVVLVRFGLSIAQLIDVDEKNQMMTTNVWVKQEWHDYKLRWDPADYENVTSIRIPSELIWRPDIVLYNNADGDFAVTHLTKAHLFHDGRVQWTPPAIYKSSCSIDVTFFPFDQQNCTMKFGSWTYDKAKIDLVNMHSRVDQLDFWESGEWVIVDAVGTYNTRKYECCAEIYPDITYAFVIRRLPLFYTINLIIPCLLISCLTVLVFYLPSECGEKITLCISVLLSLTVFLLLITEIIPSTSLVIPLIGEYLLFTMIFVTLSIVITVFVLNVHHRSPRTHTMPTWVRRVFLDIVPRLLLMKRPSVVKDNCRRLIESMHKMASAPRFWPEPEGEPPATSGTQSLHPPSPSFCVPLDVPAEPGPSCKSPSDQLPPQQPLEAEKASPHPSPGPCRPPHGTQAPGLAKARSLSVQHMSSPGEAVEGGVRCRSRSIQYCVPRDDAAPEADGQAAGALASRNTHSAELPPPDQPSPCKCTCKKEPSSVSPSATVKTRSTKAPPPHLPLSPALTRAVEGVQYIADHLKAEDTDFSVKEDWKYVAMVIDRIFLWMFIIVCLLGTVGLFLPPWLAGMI
Chain of α4β2 nAChR from β-0a-α and α4^VFL (1:1) (P43681 27-627 H142V/Q150F/T152L): as the sequence (P43681 27-627, stated change not applied) above, with H116V, Q124F, T126L counted along it

[4] = biological target: α4β2 nAChR from β-9a-α and α4^VFL (1:1) (Homo sapiens, UniProt P17787+P43681, H142V/Q150F/T152L); experiment: two-electrode voltage-clamp, oocytes, β-9a-α and α4^VFL; assay type: cell-based
Chain of α4β2 nAChR from β-9a-α and α4^VFL (1:1) (P17787 26-502): as the sequence (P17787 26-502) above
Chain of α4β2 nAChR from β-9a-α and α4^VFL (1:1) (P43681 27-627, stated change not applied): as the sequence (P43681 27-627, stated change not applied) above
Chain of α4β2 nAChR from β-9a-α and α4^VFL (1:1) (P43681 27-627 H142V/Q150F/T152L): as the sequence (P43681 27-627, stated change not applied) above, with H116V, Q124F, T126L counted along it

[5] = biological target: α4β2 nAChR from β-9a-α and α4 (1:1) (Homo sapiens, UniProt P17787+P43681); experiment: two-electrode voltage-clamp, oocytes, β-9a-α and α4; assay type: cell-based
[6] = biological target: α4β2 nAChR from β-6a-α and α4 (1:1) (Homo sapiens, UniProt P17787+P43681); experiment: two-electrode voltage-clamp, oocytes, β-6a-α and α4; assay type: cell-based; settings: β-6a-α + α4; biphasic fit
[7] = biological target: α4β2 nAChR from β-6-α-9-β-6-α and α4^VFL (1:25) (Homo sapiens, UniProt P17787+P43681, H142V/Q150F/T152L); experiment: two-electrode voltage-clamp, oocytes, β-6-α-9-β-6-α and α4^VFL 1:25; assay type: cell-based; settings: β-6-α-9-β-6-α + α4^VFL 1:25; biphasic fit
Chain of α4β2 nAChR from β-6-α-9-β-6-α and α4^VFL (1:25) (P17787 26-502): as the sequence (P17787 26-502) above
Chain of α4β2 nAChR from β-6-α-9-β-6-α and α4^VFL (1:25) (P43681 27-627, stated change not applied): as the sequence (P43681 27-627, stated change not applied) above
Chain of α4β2 nAChR from β-6-α-9-β-6-α and α4^VFL (1:25) (P17787 26-502): as the sequence (P17787 26-502) above
Chain of α4β2 nAChR from β-6-α-9-β-6-α and α4^VFL (1:25) (P43681 27-627, stated change not applied): as the sequence (P43681 27-627, stated change not applied) above
Chain of α4β2 nAChR from β-6-α-9-β-6-α and α4^VFL (1:25) (P43681 34-627 H142V/Q150F/T152L limits assumed): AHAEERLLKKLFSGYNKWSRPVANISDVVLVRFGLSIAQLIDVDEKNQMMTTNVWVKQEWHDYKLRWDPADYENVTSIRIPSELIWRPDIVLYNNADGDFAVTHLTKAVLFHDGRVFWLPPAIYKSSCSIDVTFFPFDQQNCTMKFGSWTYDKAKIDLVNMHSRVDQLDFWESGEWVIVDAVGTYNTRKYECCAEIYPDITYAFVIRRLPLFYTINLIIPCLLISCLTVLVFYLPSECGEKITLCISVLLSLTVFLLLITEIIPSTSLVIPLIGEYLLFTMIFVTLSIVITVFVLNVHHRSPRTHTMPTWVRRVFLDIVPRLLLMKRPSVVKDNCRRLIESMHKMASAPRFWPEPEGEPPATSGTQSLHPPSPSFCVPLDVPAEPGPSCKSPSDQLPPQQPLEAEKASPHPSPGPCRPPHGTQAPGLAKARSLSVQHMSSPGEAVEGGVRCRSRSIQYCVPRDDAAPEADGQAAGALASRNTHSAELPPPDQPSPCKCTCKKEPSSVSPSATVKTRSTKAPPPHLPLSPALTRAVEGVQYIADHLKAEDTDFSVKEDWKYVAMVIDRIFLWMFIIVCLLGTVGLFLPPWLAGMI

[8] = biological target: α4β2 nAChR from β-3a-α and α4 (1:1) (Homo sapiens, UniProt P17787+P43681); experiment: two-electrode voltage-clamp, oocytes, β-3a-α and α4; assay type: cell-based; settings: β-3a-α + α4; biphasic fit
[9] = biological target: α4β2 nAChR from β-3a-α alone (Homo sapiens, UniProt P17787+P43681); experiment: two-electrode voltage-clamp, oocytes, β-3a-α alone; assay type: cell-based
[10] = biological target: α4β2 nAChR from β-6-α-9-β-6-α and α4 (1:1) (Homo sapiens, UniProt P17787+P43681); experiment: two-electrode voltage-clamp, oocytes, β-6-α-9-β-6-α and α4; assay type: cell-based; settings: β-6-α-9-β-6-α + α4
[11] = biological target: α4β2 nAChR from β-0a-α and α4 (1:1) (Homo sapiens, UniProt P17787+P43681); experiment: two-electrode voltage-clamp, oocytes, β-0a-α and α4; assay type: cell-based; settings: β-0a-α + α4; biphasic fit
[12] = biological target: α4β2 nAChR from β-6-α and α4^VFL (1:25) (Homo sapiens, UniProt P17787+P43681, H142V/Q150F/T152L); experiment: two-electrode voltage-clamp, oocytes, β-6-α and α4^VFL 1:25; assay type: cell-based; settings: β-6-α + α4^VFL 1:25; biphasic fit

Row | EC50 ([4]; NS9283 pEC50, β-9a-α + α4^VFL, coapplied with 10 µM ACh) [µM] | NS9283 E31.6 µM ([4]; β-9a-α + α4^VFL, […] NS9283 + 10 µM ACh, % change from AChcontrol current) [%] | EC50 ([5]; NS9283 pEC50, β-9a-α + α4, coapplied with 10 µM ACh) [µM] | ACh Frac (first component fraction) [6] | ACh Frac (first component fraction) [7] | ACh Frac (first component fraction) [8] | Emax ([9]; read-out: ACh Emax) [%] | ACh Frac (first component fraction) ([9]; β-3a-α alone, biphasic fit) | ACh Frac (first component fraction) ([3]; biphasic fit) | mean AChmax-evoked currents [10] | ACh Frac (first component fraction) ([10]; biphasic fit) | ACh Frac (first component fraction) ([4]; β-9a-α + α4^VFL, biphasic fit) | ACh Frac (first component fraction) ([5]; β-9a-α + α4, biphasic fit) | ACh Frac (first component fraction) [11] | ACh Frac (first component fraction) [12] | Compound | NS9283 effect on AChcontrol-evoked current amplitudes at […] or higher [1] | Ki [2] [µM] | NS9283 Emax ([3]; coapplied with 10 µM ACh)
1 | 10 | 200 ± 10 | 12.6 |  |  |  |  |  |  |  |  |  |  |  |  | N#Cc1cccc(-c2nc(-c3cccnc3)no2)c1 [NS9283, 3-(3-(pyridine-3-yl)-1,2,4-oxadiazol-5-yl)benzonitrile] | inhibition | 67 | No hint of NS9283 enhancement; also recorded: No pos. pot
2 |  |  |  | 0.059 ± 0.018 | 0.40 ± 0.12 | 0.11 ± 0.02 | 103 ± 1 | 0.64 ± 0.11 | 0.28 ± 0.34 | 1–2 μA | 0.035 ± 0.020 | 0.32 ± 0.09 | 0.13 ± 0.05 | 0.053 ± 0.028 | 0.39 ± 0.05 | CC(=O)OCC[N+](C)(C)C [ACh, acetylcholine] |  |  | 
